Assay results reported in US7151105B2, “Inhibitors of Hepatitis C virus RNA-dependent RNA polymerase, and compositions and treatments using the same” (Agouron Pharmaceuticals, Inc., priority 2004, dated 2006).

Molecular target: T1, Recombinant HCV polymerase (Hepatitis C virus genotype 1b, UniProt P26663)
T1 construct: Recombinant HCV polymerase was tested for its ability to perform primer/template-directed transcription
Assay: biochemical
Conditions: inhibition of polymerase-directed transcription; 30 min at 30° C; 30 nM enzyme; cpm data in triplicate
Procedure: The compounds described herein were tested for activity with HCV polymerase. Recombinant HCV polymerase was tested for its ability to perform primer/template-directed transcription in assays that contained 30 mM tris-HCl pH 7.2, 10 mM MgCl2, 20 mM NaCl, 1 mM Dithiothreitol (DTT), 0.05% Tween-20, 1% glycerol, 5 pmoles biotin-dG12 (primer), 0.5 pmoles poly(rC)300 (template), 1 μM GTP, 0.1–0.3 uCi α-^32P-GTP, and 2.5 pmoles (0.15 μg) HCV polymerase protein in a final volume of 75 μL. Reactions were initiated by addition of enzyme and incubated 30 minutes at 30° C. Reactions were stopped by addition of 33 mM EDTA, and polynucleotide products were collected by filtration through Diethylaminoethyl (DE) Filtermat papers (Wallac). Unincorporated triphosphate was removed by washing the filters with 5% dibasic sodium phosphate. The filters were counted in a Packard Tri-Lux Microbeta scintillation counter (Packard Bioscience, Meriden, Conn.). Compounds to be tested were added at various concentrations, e.g., 1 μm to 50 μm, from stocks in 10% DMSO-water (final DMSO is 1% in reaction).
IC50 values were estimated from the primary cpm data (collected in triplicate) using the formula: cpm (I)=cpm (no inhibitor)(1−([I]/([I]+IC50))). […] A percent inhibition value is expressed for a compound where it was impractical to calculate an IC50 value with available data.

T1 sequence (P26663 2420-3010): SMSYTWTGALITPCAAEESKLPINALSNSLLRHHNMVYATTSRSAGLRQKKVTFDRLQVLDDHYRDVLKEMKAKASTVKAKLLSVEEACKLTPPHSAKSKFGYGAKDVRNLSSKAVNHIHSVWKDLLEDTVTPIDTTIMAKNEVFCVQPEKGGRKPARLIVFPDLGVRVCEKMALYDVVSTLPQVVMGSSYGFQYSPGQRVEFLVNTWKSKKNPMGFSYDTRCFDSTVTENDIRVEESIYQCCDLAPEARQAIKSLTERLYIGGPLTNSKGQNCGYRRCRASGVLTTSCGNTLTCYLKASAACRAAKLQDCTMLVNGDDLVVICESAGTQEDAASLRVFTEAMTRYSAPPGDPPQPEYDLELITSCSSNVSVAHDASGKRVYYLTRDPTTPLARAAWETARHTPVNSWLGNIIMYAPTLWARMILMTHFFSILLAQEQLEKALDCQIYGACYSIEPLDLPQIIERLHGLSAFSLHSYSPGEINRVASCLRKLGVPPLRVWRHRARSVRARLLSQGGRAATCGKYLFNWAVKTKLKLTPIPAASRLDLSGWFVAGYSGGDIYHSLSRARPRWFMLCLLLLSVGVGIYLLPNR

IC50 [nM] | SMILES
5 | CCc1cc(CCC2(C3CCCC3)CC(O)=C(Cc3nc4nc(C)cc(C)n4n3)C(=O)O2)ccc1CNC(C)=O (single isomer, unassigned; enantiomer 2) [A(133), Enantiomer 2 of N-[4-(2-{2-cyclopentyl-5-[(5,7-dimethyl[1,2,4]triazolo[1,5-a]pyrimidin-2-yl)methyl]-4-hydroxy-6-oxo-3,6-dihydro-2H-pyran-2-ylethyl)-2-ethylbenzyl]acetamide]
4 | CCc1cc(CCC2(C3CCCC3)CC(O)=C(Cc3nc4nc(C)cc(C)n4n3)C(=O)O2)ccc1-c1ncco1 (single isomer, unassigned; enantiomer 2) [A(139), Enantiomer 2 of 6-Cyclopentyl-3-[(5,7-dimethyl[1,2,4]triazolo[1,5-a]pyrimidin-2-yl)methyl]-6-{2-[3-ethyl-4-(1,3-oxazol-2-yl)phenyl]ethyl}-4-hydroxy-5,6-dihydro-2H-pyran-2-one]
3 | CCCOc1cc(O)c(CC)cc1CCC1(C2CCCC2)CC(O)=C(Cc2nc3nc(C)cc(C)n3n2)C(=O)O1 (centres unmarked) [A(1), 6Cyclopentyl-3[(5,7-dimethyl[1,2,4]triazolo[1,5-a]pyrimidin-2-yl)methyl]-6-[2-(5-ethyl-4-hydroxy-2-propoxyphenyl)ethyl]-4-hydroxy-5,6dihydro-2H-pyran-2-one]
620 | CCc1cc(CCC2(C3CCCC3)CC(=O)CC(=O)O2)c(OC)cn1 (centres unmarked) [A(2), 6–Cyclopentyl-6-[2-(2-ethyl-5-methoxypyridin-4-yl)ethyl]dihydro-2H-pyran-2,4(3H)-dione]
1 | CCc1cc(CCC2(C3CCCC3)CC(O)=C(Cc3nc4nc(C)cc(C)n4n3)C(=O)O2)c(OC)cn1 (centres unmarked) [A(3), 6-Cyclopentyl-3-[(5,7-dimethyl[1,2,4]triazolo[1,5-a]pyrimidin-2-yl)methyl]-6-[2-(2-ethyl-5-methoxypyridin-4-yl)ethyl]-4-hydroxy-5,6-dihydro-2H-pyran-2-one]
7 | CCc1cc(CCC2(C3CCCC3)CC(O)=C(Cc3nc4ncc(C)cn4n3)C(=O)O2)c(OC)cn1 (centres unmarked) [A(4), 6-Cyclopentyl-6-[2-(2-ethyl-5-methoxypyridin-4-yl)ethyl]-4-hydroxy-3-[(6-methyl[1,2,4]triazolo[1,5-a]pyrimidin-2-yl)methyl]-5,6-dihydro-2H-pyran-2-one]
8600 | CCc1ccc(OC)c(CCC2(C3CCCC3)CC(=O)CC(=O)O2)n1 (centres unmarked) [A(5), 6-Cyclopentyl-6-[2-(6-ethyl-3-methoxypyridin-2-yl)ethyl]dihydro-2H-pyran-2,4(3H)-dione]
39 | CCc1ccc(OC)c(CCC2(C3CCCC3)CC(O)=C(Cc3nc4nc(C)cc(C)n4n3)C(=O)O2)n1 (centres unmarked) [A(6), 6-Cyclopentyl-3-[(5,7-dimethyl[1,2,4]triazolo[1,5-a]pyrimidin-2-yl)methyl]6-[2-(6-ethyl-3-methoxypyridin-2-yl)ethyl]4-hydroxy-5,6-dihydro-2H-pyran-2-one]
11300 | COc1cnc(C)cc1CCC1(C2CCCC2)CC(=O)CC(=O)O1 (centres unmarked) [A(7), 6-Cyclopentyl-6-[2-(5-methoxy-2-methylpyridin-4-yl)ethyl]dihydro-2H-pyran-2,4(3H)dione]
99 | COc1cnc(C)cc1CCC1(C2CCCC2)CC(O)=C(Cc2nc3nc(C)cc(C)n3n2)C(=O)O1 (centres unmarked) [A(8), 6-Cyclopentyl-3-[(5,7-dimethyl[1,2,4]triazolo[1,5-a]pyrimidin-2-yl)methyl]-4-hydroxy-6-[2-(5methoxy-2-methylpyridin-4-yl)ethyl]-5,6-dihydro-2H-pyran-2-one]
5 | Cc1cc(C)n2nc(CC3=C(O)CC(CCc4cc(CC(F)(F)F)nc(CC(F)(F)F)c4)(C4CCCC4)OC3=O)nc2n1 (centres unmarked) [A(9), 6-{2-[2,6-Bis(2,2,2-trifluoroethyl)pyridin-4-yl]ethyl}-6-cyclopentyl-3-[(5,7-dimethyl[1,2,4]triazolo[1,5-a]pyrimidin-2-yl)methyl]-4-hydroxy-5,6-dihydro-2H-pyran-2-one]
8 | CCc1cncc(CCC2(C3CCCC3)CC(O)=C(Cc3nc4nc(C)cc(C)n4n3)C(=O)O2)c1 (centres unmarked) [A(14), 6-Cyclopentyl-3-[(5,7-dimethyl[1,2,4]triazolo[1,5-a]pyrimidin-2-yl)methyl]-6-[2-(5-ethylpyridin-3-yl)ethyl]-4-hydroxy-5,6dihydro-2H-pyran-2-one]
7 | CCc1ccnc(CCC2(C3CCCC3)CC(O)=C(Cc3nc4nc(C)cc(C)n4n3)C(=O)O2)c1 (centres unmarked) [A(15), 6-Cyclopentyl-3-[(5,7-dimethyl[1,2,4]triazolo[1,5-a]pyrimidin-2-yl)methyl]-6-[2-(4-ethylpyridin-2-yl)ethyl]-4-hydroxy-5,6-dihydro-2H-pyran-2-one]
55 | CCc1ccnc(CCC2(C3CCCC3)CC(O)=C(Cc3nc4ncc(C)cn4n3)C(=O)O2)c1 (centres unmarked) [A(16), 6-Cyclopentyl-6-[2-(4-ethylpyridin-2-yl)ethyl]-4-hydroxy-3-[(6-methyl[1,2,4]triazolo[1,5-a]pyrimidin-2-yl)methyl]-5,6-dihydro-2H-pyran-2-one]
170 | Cc1cc(CCC2(C3CCCC3)CC(O)=C(Cc3nc4nc(C)cc(C)n4n3)C(=O)O2)cc(C)n1 (centres unmarked) [A(18), 6-Cyclopentyl-6-[2-(2,6-dimethylpyridin-4-yl)ethyl]-3[(5,7-dimethyl[1,2,4]triazolo[1,5-a]pyrimidin-2-yl)methyl]-4-hydroxy-5,6dihydro-2H-pyran-2-one]
12 | CCc1ccc(CCCOC)c(CCC2(C3CCCC3)CC(O)=C(Cc3nc4nc(C)cc(C)n4n3)C(=O)O2)c1 (centres unmarked) [A(19), 6Cyclopentyl-3-[(5,7-dimethyl[1,2,4]triazolo[1,5-a]pyrimidin-2-yl)methyl]-6-{2-[5-ethyl-2-(3-methoxypropyl)phenyl]ethyl}-4-hydroxy-5,6dihydro-2H-pyran-2-one]
9 | CCc1cc(CCC2(C3CCCC3)CC(O)=C(Cc3nc4nc(C)cc(C)n4n3)C(=O)O2)ccc1CCCOC (centres unmarked) [A(20), 6-Cyclopentyl-3-[(5,7-dimethyl[1,2,4]triazolo[1,5-a]pyrimidin-2-yl)methyl]=6-{2-[3-ethyl-4-(3-methoxypropyl)phenyl]ethyl} -4-hydroxy-5,6-dihydro-2H-pyran-2-one]
1 | CCc1cc(CC[C@]2(C3CCCC3)CC(O)=C(Cc3nc4ncc(C)cn4n3)C(=O)O2)c(O)cc1O [A(21), (6R)-6-cyclopentyl-6-[2-(5-ethyl-2,4dihydroxyphenyl)ethyl]-4-hydroxy-3-[(6-methyl[1,2,4]triazolo[1,5-a]pyrimidin-2-yl)methyl]-5,6-dihydro-2H-pyran-2-one]
4 | CCOc1cc(O)c(CC)cc1CCC1(C2CCCC2)CC(O)=C(Cc2nc3nc(C)cc(C)n3n2)C(=O)O1 (centres unmarked) [A(22), 6-Cyclopentyl-3-[(5,7-dimethyl[1,2,4]triazolo[1,5-a]pyrimidin-2-yl)methyl]-6-[2-(2-ethoxy-5-ethyl-4-hydroxyphenyl)ethyl]-4-hydroxy-5,6-dihydro-2H-pyran-2-one]
6 | COc1ccc(CCC2(C3CCCC3)CC(O)=C(Cc3nc4nc(C)cc(C)n4n3)C(=O)O2)cc1C(F)(F)F (centres unmarked) [A(23), 6-Cyclopentyl-3-[(5,7-dimethyl[1,2,4]triazolo[1,5-a]pyrimidin-2-yl)methyl]-4-hydroxy-6-{2-[4-methoxy-3-(trifluoromethyl)phenyl]ethyl}-5,6-dihydro-2H-pyran-2-one]
